Tests used:
blood glucose = test: Blood glucose in rats after oral gavage or subcutaneous dosing; format: in vivo; settings: subcutaneous 0.3 IU/kg
Description: The peptide and oil for formulations 44-47 were sonicated until they appeared cloudy but homogenous. Then the remaining ingredients were added to each sample. The samples were sonicated again until they appeared cloudy but homogenous. The samples were stored overnight at room temperature. Normal SD Rats (5 rats/group) were fasted overnight before being dosed by oral gavage at insulin equivalent dosage of 75 IU/kg. For comparison, a fifth group (sample 48) was dosed with Humulin R (recombinant human insulin) subcutaneously at 0.3 IU/kg. Blood was collected at predose (−30 min) and post dose (10 min, 30 min, 1 h, 1.5 h, 2 h, 3 h, 4 h, 6 h, 8 h) for glucose measurements by a glucometer. […]

[1] = cited from earlier work
[2] = rat, in vivo, po
Description: In forming samples 12-15, the insulin-PEG (or insulin-PEG inclusion complex) and the fish oil were sonicated for 30 minutes. The DPC was then added to the sonicated mixture and the mixture was briefly swirled or vortexed to mix. The resulting mixtures were kept at room temperature for 1 hour. The samples were administered via an oral gavage to rats at 150 IU/kg (for 5 kDa PEG) and 75 IU/kg (for 2 kDa PEG). At specified intervals, blood was collected from the jugular vein and analyzed for glucose values.

Description for Caco-2 monolayer: In order to estimate the membrane permeability of various formulations, a Caco-2 permeability study was performed. The compounds tested were insulin-PEG (5 kDa), insulin-PEG (5 kDa) inclusion complex, insulin-PEG (5 kDa) inclusion complex and DPC, insulin-PEG (2 kDa), and the insulin-PEG (2 kDa) inclusion complex. All compounds were dissolved in media at a concentration of 1 mg insulin/mL media and added to a Caco-2 monolayer.

48: Humulin R (recombinant human insulin) dosed subcutaneously at 0.3 IU/kg [Sample 48]
time glucose back at baseline (blood glucose; Example 14): 3 h

GLP-1: a 31 amino acid peptide, an incretin, a hormone that can decrease blood glucose levels
in vivo half-life [1]: less than two

Sample 17: 0.015 mg/kg insulin-PEG (2 kDa), administered subcutaneously
time glucose back to baseline (~60 mg/dL) (blood glucose; Example 10): about 4 hours

Sample 18: 0.011 mg/kg insulin, administered subcutaneously
time glucose back to baseline (~60 mg/dL) (blood glucose; Example 10): about 3 hours

Sample 19: 0.011 mg/kg insulin, administered subcutaneously
time glucose back to baseline (~60 mg/dL) (blood glucose; Example 11): about 3 hours | reduction in blood glucose to, within 30 minutes (blood glucose; Example 11, all rats): 20 mg/dL

insulin-PEG (2 kDa): human insulin conjugated with a 2 kDa PEG
serum insulin-PEG / absorption [2]: better absorbed than 5 kDa PEG | % of the insulin-PEG permeating through the cell layer after 3 hours (Caco-2 monolayer): 1%

From patent publication US20180271792A1, “ORAL DELIVERY OF PHYSIOLOGICALLY ACTIVE SUBSTANCES” (Rezolute, Inc., priority 2017, published 2018)
